From patent publication US20260152527A1, “NOVEL MELANOCORTIN ANALOGS” (priority 2022, published 2026)
Positions of bridges follow the written chain, without caps; N, C: chain ends. Non-standard residues stand in square brackets, D forms with d. Residues, ends and D or L forms follow the SMILES beside them. Triazole bridges read from a SMILES are 1,4-linked. Lys(N3) = [N-]=[N+]=NCCCC[C@H](N)C(=O)O; NMeR = CN[C@@H](CCCNC(=N)N)C(=O)O; hArg = N=C(N)NCCCC[C@H](N)C(=O)O; R8 = C=CCCCCCC[C@@](C)(N)C(=O)O; Aad = N[C@@H](CCCC(=O)O)C(=O)O; S5 = C=CCCC[C@](C)(N)C(=O)O; dPra = C#CC[C@@H](N)C(=O)O; Nle = CCCC[C@H](N)C(=O)O; Pra = C#CC[C@H](N)C(=O)O

How the values were obtained:
Format in all cases: cell-based
[1] = target: T1, human recombinant MC3R (Homo sapiens, UniProt P41968); test: Ca2+ signalling functional assay, MC3R stable cell line (CHO-K1/Gα15); settings: calcium flux functional assay
T1 construct: host or cells: CHO-K1/Gα15
Procedure: The Ca^2+ signalling functional assay was performed on a human recombinant MC3R stable cell line (CHO-K1/Gα15, GenScript). The cells were cultured at 37° C. and 5% CO2 with culture medium (90% Ham's F-12K (Kaighn's)+10% FBS+200 μg/mL Zeocin+100 μg/mL Hygromycin B). Cells were washed with PBS and then detached by incubation with 0.05% (w/v) Trypsin EDTA at 37° C. for 2-5 mins. Detached cells were suspended in Ham's F-12K (Kaighn's) (containing 10% FBS) and a 50 μL cell suspension was seeded into each well of a 384-well assay plate at a density of 10,000 cells/well. Cells were allowed to settle overnight at 37° C., 5% CO2. […] The compounds and reference compound ACTH were diluted in 4 folds starting from 50 uM. Then, 500 nL of compounds were transferred to the compound plate by the Echo machine. 30 uL assay buffer was added into the compounds plate and then shaken for 20-40 minutes. The plates were then placed on the FLIPR Tetra High-Throughput Cellular Screening System (FLIPR®, Molecular Devices) and 15 μL of the compound was added to each well, then calcium flux signal was measured.

[2] = target: T2, human recombinant MC1R (Homo sapiens, UniProt Q01726); test: cyclic AMP (cAMP) functional assay, MC1R stable cell line (CHO-K1); settings: cAMP functional assay;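 further: cells with test compound for 60 min at room temperature in buffer containing IBMX, then cAMP quantified by Eu-cAMP tracer and ULight anti-cAMP detection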
T2 construct: host or cells: CHO-K1

[3] = target: T3, human recombinant MC5R (Homo sapiens, UniProt P33032); test: Ca2+ signalling functional assay, MC5R stable cell line (CHO-K1/Ga15); settings: calcium flux functional assay
T3 construct: host or cells: CHO-K1/Ga15
Procedure: The Ca^2+ signalling functional assay was performed on a human recombinant MC5R stable cell line (CHO-K1/Ga15, GenScript). The cells were cultured at 37° C. and 5% C02 with culture medium (90% Ham's F-12K (Kaighn's)+10% FBS+400 μg/mL G418+100 μg/mL Hygromycin B). Cells were washed with PBS and then detached by incubation with 0.05% (w/v) Trypsin EDTA at 37° C. for 2 to 5 mins. Detached cells were suspended in Ham's F-12K (Kaighn's) (containing 10% FBS) and a 50 μL cell suspension is seeded into each well of a 384-well assay plate at a density of 15,000 cells/well. Cells were allowed to settle overnight at 37° C., 5% CO2. […] Then, 100 nL of compounds were transferred to the compound plate by the Echo machine. Thirty microliter assay buffer was added to the compounds plate and then shaken for 20-40 minutes. The plates were placed on the FLIPR and 15 μL of the compound was added to each well, then calcium flux signal was measured.

[4] = target: T4, human recombinant MC4R (Homo sapiens, UniProt P32245); test: Ca2+ signalling functional assay, MC4R stable cell line (CHO-K1/Gα15); settings: calcium flux functional assay
T4 construct: host or cells: CHO-K1/Gα15
T4 sequence (P32245 whole entry): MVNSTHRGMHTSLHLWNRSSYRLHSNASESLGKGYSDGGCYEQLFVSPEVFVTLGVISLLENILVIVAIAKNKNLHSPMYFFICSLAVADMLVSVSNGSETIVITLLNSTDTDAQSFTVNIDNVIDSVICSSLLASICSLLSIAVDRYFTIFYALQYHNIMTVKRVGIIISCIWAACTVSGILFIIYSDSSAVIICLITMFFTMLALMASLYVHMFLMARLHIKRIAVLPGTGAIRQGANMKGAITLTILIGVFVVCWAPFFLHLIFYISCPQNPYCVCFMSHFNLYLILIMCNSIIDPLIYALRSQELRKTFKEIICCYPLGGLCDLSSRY
Procedure: The Ca^2+ signalling functional assay was performed on a human recombinant MC4R stable cell line (CHO-K1/Gα15, GenScript). The cells were cultured at 37° C. and 5% CO2 with culture medium (90% Ham's F-12K (Kaighn's)+10% FBS+8 μg/mL Puromycin+100 μg/mL Hygromycin B). Cells were washed with PBS and then detached by incubation with 0.05% (w/v) Trypsin EDTA at 37° C. for 2-5 mins. Detached cells were suspended in Ham's F-12K (Kaighn's) (containing 10% FBS) and a 50 μL cell suspension was seeded into each well of a 384-well assay plate at a density of 15,000 cells/well. Cells were allowed to settle overnight at 37° C., 5% CO2. The next day, the assay plate was centrifuged and the media was replaced with dye (1×) in assay buffer (containing HBSS, HEPES 20 mM and probenecid 1 mM) and incubated for 1 h at 37° C. […] Then, 100 nL of compounds were transferred to the compound plate by the Echo machine. 30 μL assay buffer was added to the compounds plate and then shaken for 20 to 40 minutes. The plates were placed on the FLIPR and 15 μL of the compound was added to each well, then calcium flux signal was measured.

T3 sequence (P33032 whole entry): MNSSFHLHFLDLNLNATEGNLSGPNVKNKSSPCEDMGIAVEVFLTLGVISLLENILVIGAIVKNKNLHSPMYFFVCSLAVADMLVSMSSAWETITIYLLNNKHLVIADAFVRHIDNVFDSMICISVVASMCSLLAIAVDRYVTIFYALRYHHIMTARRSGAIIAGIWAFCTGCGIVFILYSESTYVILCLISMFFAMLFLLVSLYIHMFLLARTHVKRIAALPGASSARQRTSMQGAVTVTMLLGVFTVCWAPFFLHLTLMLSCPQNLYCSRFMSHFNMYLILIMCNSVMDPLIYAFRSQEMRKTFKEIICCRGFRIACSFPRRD
T2 sequence (Q01726 whole entry): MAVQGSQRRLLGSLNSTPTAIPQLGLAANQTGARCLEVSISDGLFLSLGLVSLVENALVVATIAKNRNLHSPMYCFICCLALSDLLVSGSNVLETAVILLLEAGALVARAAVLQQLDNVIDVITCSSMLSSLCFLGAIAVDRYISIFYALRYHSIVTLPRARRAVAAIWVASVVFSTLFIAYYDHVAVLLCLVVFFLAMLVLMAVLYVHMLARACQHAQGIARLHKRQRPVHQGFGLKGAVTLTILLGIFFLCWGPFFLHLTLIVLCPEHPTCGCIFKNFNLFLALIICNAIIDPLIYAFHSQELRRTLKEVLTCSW
T1 sequence (P41968 whole entry): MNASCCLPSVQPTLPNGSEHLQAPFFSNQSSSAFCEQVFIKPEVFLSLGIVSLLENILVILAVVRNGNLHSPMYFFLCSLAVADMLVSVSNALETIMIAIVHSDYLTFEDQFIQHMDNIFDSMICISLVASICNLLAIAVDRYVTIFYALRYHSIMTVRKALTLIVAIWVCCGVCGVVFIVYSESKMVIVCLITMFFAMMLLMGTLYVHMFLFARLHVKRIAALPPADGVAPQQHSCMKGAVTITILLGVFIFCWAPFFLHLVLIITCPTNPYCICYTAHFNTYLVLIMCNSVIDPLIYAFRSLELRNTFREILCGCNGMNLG

IC50 [2] | IC50 [3] | SMILES | other results
 | > 10000 nM | CC(=O)N[C@H]1CCCCn2cc(nn2)C[C@@H](C(N)=O)NC(=O)CNC(=O)[C@H](Cc2c[nH]c3ccccc23)NC(=O)[C@H](CCCNC(=N)N)NC(=O)[C@H](Cc2ccccc2)NC(=O)[C@H](Cc2c[nH]cn2)NC(=O)[C@H](CCC(=O)O)NC1=O [KR-010, Ac-[Lys(N3)-Glu-His-Phe-Arg-Trp-Gly-Pra]-NH2] (Ac-[Lys(N3)]EHFRWG[Pra]-NH2; triazole 1-8) | 
0.16 nM |  | CCCC[C@H](NC(C)=O)C(=O)N[C@H]1CCn2cc(nn2)COCc2cn(nn2)CC[C@@H](C(N)=O)NC(=O)[C@H](Cc2c[nH]c3ccccc23)NC(=O)[C@H](CCCNC(=N)N)NC(=O)[C@@H](Cc2ccccc2)NC(=O)[C@H](Cc2c[nH]cn2)NC1=O [KR-042, Ac-Nle-[Dab(N3)-His-DPhe-Arg-Trp-Dab(N3)] linkr: 3,3′-Oxybis[1-propyne]-NH2] | 
0.093 nM |  | CCCC[C@H](NC(C)=O)C(=O)N[C@H]1CCCCn2cc(nn2)C[C@@H](C(=O)N[C@@H](CCCCN)C(N)=O)NC(=O)[C@H](Cc2c[nH]c3ccccc23)NC(=O)[C@H](CCCCNC(=N)N)NC(=O)[C@@H](Cc2ccccc2)NC(=O)[C@H](Cc2c[nH]cn2)NC1=O [KR-054, Ac-Nle-[Lys(N3)-His-DPhe-HArg-Trp-Pra]-Lys-NH2] (Ac-[Nle][Lys(N3)]H[dF][hArg]W[Pra]K-NH2; triazole 2-7) | 
0.024 nM |  | CCCC[C@H](NC(C)=O)C(=O)N[C@H]1CCCCn2cc(nn2)C[C@@H](C(=O)N[C@@H](CCCC(N)=O)C(N)=O)NC(=O)[C@H](Cc2c[nH]c3ccccc23)NC(=O)[C@H](CCCNC(=N)N)NC(=O)[C@@H](Cc2ccccc2)NC(=O)[C@H](Cc2c[nH]cn2)NC1=O [KR-057, Ac-Nle-[Lys(N3)-His-DPhe-Arg-Trp-Pra]-Hgln-NH2] (Ac-[Nle][Lys(N3)]H[dF]RW[Pra][Aad](NH2)-NH2; triazole 2-7) | 
 | > 10000 nM | CCCC[C@H](NC(C)=O)C(=O)N[C@H]1CCCCn2cc(nn2)C[C@@H](C(N)=O)NC(=O)[C@H](Cc2c[nH]c3ccccc23)NC(=O)[C@H](CCCNC(=N)N)NC(=O)[C@H](Cc2ccccc2)NC(=O)[C@H](Cc2c[nH]cn2)NC1=O [KR-008, Ac-Nle-[Lys(N3)-His-Phe-Arg-Trp-Pra]-NH2] (Ac-[Nle][Lys(N3)]HFRW[Pra]-NH2; triazole 2-7) | 

More lines, now with the values behind:

SMILES | IC50 [2] | IC50 [3] | other results
CCCC[C@H](NC(C)=O)C(=O)N[C@H]1CCCCn2cc(nn2)C[C@@H](C(N)=O)NC(=O)[C@H](Cc2c[nH]c3ccccc23)NC(=O)[C@H](CCCNC(=N)N)N(C)C(=O)[C@@H](Cc2ccccc2)NC(=O)[C@H](Cc2c[nH]cn2)NC1=O [KR-045, Ac-Nle-[Lys(N3)-His-DPhe-NMeArg-Trp-Pra]-NH2] (Ac-[Nle][Lys(N3)]H[dF][NMeR]W[Pra]-NH2; triazole 2-7) |  |  | IC50 [1]: > 50000 nM
CCCC[C@@H]1NC(=O)CSC[C@@H](C(N)=O)NC(=O)[C@H](CCCCN)NC(=O)CNC(=O)[C@H](Cc2c[nH]c3ccccc23)NC(=O)[C@H](CCCNC(=N)N)NC(=O)[C@H](Cc2ccccc2)NC(=O)[C@H](Cc2c[nH]cn2)NC(=O)[C@H](CCC(=O)O)NC1=O [KR-036] ({CH2CO}-[Nle]EHFRWGKC-NH2; thioether N-9) | 0.88 nM |  | 
CC(=O)N[C@]1(C)CCCCCCC=CCCC[C@@](C)(C(N)=O)NC(=O)CNC(=O)[C@H](Cc2c[nH]c3ccccc23)NC(=O)[C@H](CCCNC(=N)N)NC(=O)[C@H](Cc2ccccc2)NC(=O)[C@H](Cc2c[nH]cn2)NC(=O)[C@H](CCC(=O)O)NC1=O [KR-015, Ac-R8-Glu-His-Phe-Arg-Trp-Gly-S5-NH2] (Ac-[R8]EHFRWG[S5]-NH2; staple 1-8) |  | > 10000 nM | 
CCCC[C@H](NC(C)=O)C(=O)N[C@H]1CCCCn2cc(nn2)C[C@H](C(=O)N[C@@H](CCCCN)C(N)=O)NC(=O)[C@H](Cc2c[nH]c3ccccc23)NC(=O)[C@H](CCCNC(=N)N)NC(=O)[C@@H](Cc2ccccc2)NC(=O)[C@H](Cc2c[nH]cn2)NC1=O [KR-070, Ac-Nle-[Lys(N3)-His-DPhe-Arg-Trp-DPra]-Lys-NH2] (Ac-[Nle][Lys(N3)]H[dF]RW[dPra]K-NH2; triazole 2-7) |  |  | IC50 [4]: 84.1 nM
CSCC[C@H](NC(=O)[C@H](CO)NC(=O)[C@H](Cc1ccc(O)cc1)NC(=O)[C@H](CO)NC(C)=O)C(=O)N[C@@H](CCC(=O)O)C(=O)N[C@@H](Cc1c[nH]cn1)C(=O)N[C@@H](Cc1ccccc1)C(=O)N[C@@H](CCCNC(=N)N)C(=O)N[C@@H](Cc1c[nH]c2ccccc12)C(=O)NCC(=O)N[C@@H](CCCCN)C(=O)N1CCC[C@H]1C(N)=O [KR-005] | 0.093 nM |  | IC50 [4]: 67.1 nM
CC(=O)N[C@@H](CCC(=O)O)C(=O)N[C@@H](Cc1c[nH]cn1)C(=O)N[C@@H](Cc1ccccc1)C(=O)N[C@@H](CCCNC(=N)N)C(=O)N[C@@H](Cc1c[nH]c2ccccc12)C(=O)NCC(=O)N[C@@H](CCCCN)C(=O)N1CCC[C@H]1C(=O)N[C@H](C(N)=O)C(C)C [KR-004] |  | > 10000 nM | 
CCCC[C@H](NC(C)=O)C(=O)N1CCC(=O)NCC[C@@H](C(=O)N[C@@H](Cc2c[nH]c3ccccc23)C(N)=O)NC(=O)[C@H](CCCNC(=N)N)NC(=O)[C@@H](Cc2ccccc2)NC(=O)[C@H](Cc2c[nH]cn2)NC(=O)C1 [KR-027, Ac-Nle-cyc(NGlu-His-DPhe-Arg-Dab)-Trp-NH2] |  |  | IC50 [4]: 84.1 nM
